Laboratory results: patent US8765773B2, “Substituted hydroxamic acids and uses thereof” (Millennium Pharmaceuticals, Inc., priority 2010, dated 2014)

molecular target: T1, purified human HDAC6 (Homo sapiens, UniProt Q9UBN7); experiment: HDAC6 Enzyme Assay; type: biochemical; conditions: compound concentration 0.37 μM, read-out: Percent Inhibition
T1 construct: purchased BPS Bioscience 5006
T1 sequence (Q9UBN7 1-1215): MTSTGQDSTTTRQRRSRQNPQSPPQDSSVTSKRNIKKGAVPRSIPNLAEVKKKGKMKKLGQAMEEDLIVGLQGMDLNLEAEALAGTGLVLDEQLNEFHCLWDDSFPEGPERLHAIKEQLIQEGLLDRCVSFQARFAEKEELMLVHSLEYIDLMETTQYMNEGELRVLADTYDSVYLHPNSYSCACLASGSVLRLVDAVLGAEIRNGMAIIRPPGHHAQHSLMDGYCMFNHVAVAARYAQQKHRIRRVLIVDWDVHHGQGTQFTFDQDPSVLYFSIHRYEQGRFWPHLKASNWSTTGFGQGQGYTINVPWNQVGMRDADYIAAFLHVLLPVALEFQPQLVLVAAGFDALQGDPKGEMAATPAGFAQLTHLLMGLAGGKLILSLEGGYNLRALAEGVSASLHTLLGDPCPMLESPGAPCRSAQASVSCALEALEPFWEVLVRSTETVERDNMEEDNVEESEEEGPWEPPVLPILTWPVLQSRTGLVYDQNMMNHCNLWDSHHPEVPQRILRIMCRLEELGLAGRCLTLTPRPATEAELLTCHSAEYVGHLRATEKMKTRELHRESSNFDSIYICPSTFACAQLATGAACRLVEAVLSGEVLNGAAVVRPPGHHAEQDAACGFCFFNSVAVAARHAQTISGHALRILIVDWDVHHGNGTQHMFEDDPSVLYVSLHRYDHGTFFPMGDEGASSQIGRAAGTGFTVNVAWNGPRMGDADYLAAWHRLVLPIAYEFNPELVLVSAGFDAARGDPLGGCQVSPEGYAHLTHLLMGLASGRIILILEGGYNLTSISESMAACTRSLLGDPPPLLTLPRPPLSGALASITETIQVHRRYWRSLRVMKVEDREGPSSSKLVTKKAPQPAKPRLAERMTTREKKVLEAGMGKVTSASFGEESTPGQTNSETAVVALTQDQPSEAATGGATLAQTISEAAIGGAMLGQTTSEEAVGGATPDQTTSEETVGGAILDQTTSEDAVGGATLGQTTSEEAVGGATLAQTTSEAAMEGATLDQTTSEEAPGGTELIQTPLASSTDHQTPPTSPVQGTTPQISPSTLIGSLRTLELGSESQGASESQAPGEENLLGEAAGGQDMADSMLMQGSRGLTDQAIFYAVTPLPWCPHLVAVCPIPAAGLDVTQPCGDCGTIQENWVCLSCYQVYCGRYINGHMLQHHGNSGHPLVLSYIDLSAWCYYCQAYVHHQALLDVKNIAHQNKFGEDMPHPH
Outline: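 Readout is AMC fluorescence (Ex 340 nm, Em 460 nm) after trypsin cleavage of the deacetylated Ac-Arg-Gly-Lys(Ac)-AMC product. Reaction: purified human HDAC6, compound or vehicle, 1 hour, 30° C, quenched by trichostatin A. Single-concentration percent inhibition or IC50 calculated versus DMSO-treated samples.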

Row | inhibition at 0.37 µM [%] | SMILES
1 | 98.6 | Cn1cc(-c2cccc(Cn3ccc4ccc(C(=O)NO)cc4c3=O)c2)cn1 [Compound I-319, N-hydroxy-2-[3-(1-methyl-1H-pyrazol-4-yl)benzyl]-1-oxo-1,2-dihydroisoquinoline-7-carboxamide]
2 | 88.1 | Cc1ccc(-c2cccc(CCn3cnc4ccc(C(=O)NO)cc4c3=O)c2)cc1 [Compound I-301, N-hydroxy-3-[2-(4′-methylbiphenyl-3-yl)ethyl]-4-oxo-3,4-dihydroquinazoline-6-carboxamide]
3 | 94.9 | O=C(NO)c1ccc2ncn(CCC(c3ccccc3)C3CCCCC3)c(=O)c2c1 (centres unmarked) [Compound I-340, 3-(3-cyclohexyl-3-phenylpropyl)-N-hydroxy-4-oxo-3,4-dihydroquinazoline-6-carboxamide]
4 | 91.6 | O=C(NO)c1ccc2ncn(CCc3cccc(-c4cccc(C(F)(F)F)c4)c3)c(=O)c2c1 [Compound I-311, N-hydroxy-4-oxo-3-{2-[3′-(trifluoromethyl)biphenyl-3-yl]ethyl}-3,4-dihydroquinazoline-6-carboxamide]
5 | 99 | O=C(NO)c1ccc2ccn(Cc3ccc(-n4cccc4)cc3)c(=O)c2c1 [Compound I-305, N-hydroxy-1-oxo-2-[4-(1H-pyrrol-1-yl)benzyl]-1,2-dihydroisoquinoline-7-carboxamide]
6 | 75.4 | NCCCn1ccc2ccc(C(=O)NO)cc2c1=O [Compound I-173, 2-(3-aminopropyl)-N-hydroxy-1-oxo-1,2-dihydroisoquinoline-7-carboxamide]
7 | 87.2 | O=C(NO)c1ccc2ncn(CCc3cccc(-c4cccnc4)c3)c(=O)c2c1 [Compound I-331, N-hydroxy-4-oxo-3-[2-(3-pyridin-3-ylphenyl)ethyl]-3,4-dihydroquinazoline-6-carboxamide]
8 | -4.61 | Cc1ncc(-c2nc3cc(C(=O)NO)ccc3c(=O)[nH]2)n1C [Compound I-403, 2-(1,2-dimethyl-1H-imidazol-5-yl)-N-hydroxy-4-oxo-3,4-dihydroquinazoline-7-carboxamide]

same assay, conditions: compound concentration 0.412 μM, read-out: Percent Inhibition

Row | SMILES | inhibition at 0.412 µM [%]
9 | O=C(NO)c1ccc2ccn(Cc3cccc(Oc4ccc(F)cc4)c3)c(=O)c2c1 [Compound I-98, 2-[3-(4-fluorophenoxy)benzyl]-N-hydroxy-1-oxo-1,2-dihydroisoquinoline-7-carboxamide] | 91
10 | CC(C)Nc1nc2cc(C(=O)NO)ccc2c(=O)n1C [Compound I-15, N-hydroxy-2-(isopropylamino)-3-methyl-4-oxo-3,4-dihydroquinazoline-7-carboxamide] | 32.7
11 | COc1ccc(Nc2nc3cc(C(=O)NO)ccc3c(=O)n2C)cc1 [Compound I-49, N-hydroxy-2-[(4-methoxyphenyl)amino]-3-methyl-4-oxo-3,4-dihydroquinazoline-7-carboxamide] | 55
12 | O=C(NO)c1ccc2ncn(CCc3ccccn3)c(=O)c2c1 [Compound I-104, N-hydroxy-4-oxo-3-(2-pyridin-2-ylethyl)-3,4-dihydroquinazoline-6-carboxamide] | 82.5
13 | Cc1nc2cc(C(=O)NO)ccc2c(=O)n1C [Compound I-132, N-hydroxy-2,3-dimethyl-4-oxo-3,4-dihydroquinazoline-7-carboxamide] | 59.8
14 | CC(C)C(Cn1ccc2ccc(C(=O)NO)cc2c1=O)c1ccccc1 (centres unmarked) [Compound I-141, N-hydroxy-2-(3-methyl-2-phenylbutyl)-1-oxo-1,2-dihydroisoquinoline-7-carboxamide] | 90.5
15 | Cc1nc2cc(C(=O)NO)ccc2c(=O)[nH]1 [Compound I-18, N-hydroxy-2-methyl-4-oxo-3,4-dihydroquinazoline-7-carboxamide] | 68.9
16 | O=C(NO)c1ccc2c(=O)[nH]c(=O)[nH]c2c1 [Compound I-155, N-hydroxy-2,4-dioxo-1,2,3,4-tetrahydroquinazoline-7-carboxamide] | 19.6
17 | O=C(NO)c1ccc2ncn(C(c3ccccc3)c3ccccc3)c(=O)c2c1 [Compound I-4, 3-(diphenylmethyl)-N-hydroxy-4-oxo-3,4-dihydroquinazoline-6-carboxamide] | 79.6
18 | CC1(C)CCC(C)(C)c2cc(Cn3cnc4ccc(C(=O)NO)cc4c3=O)ccc21 [Compound I-112, N-hydroxy-4-oxo-3-[(5,5,8,8-tetramethyl-5,6,7,8-tetrahydronaphthalen-2-yl)methyl]-3,4-dihydroquinazoline-6-carboxamide] | 95.2
19 | O=C(NO)c1ccc2ccn(CCOc3cc(C(F)(F)F)cc(C(F)(F)F)c3)c(=O)c2c1 [Compound I-91, 2-{2-[3,5-bis(trifluoromethyl)phenoxy]ethyl}-N-hydroxy-1-oxo-1,2-dihydroisoquinoline-7-carboxamide] | 86.9
20 | O=C(NO)c1ccc2ccn(CCCOc3cccc(OCc4ccccc4)c3)c(=O)c2c1 [Compound I-20, 2-{3-[3-(benzyloxy)phenoxy]propyl}-N-hydroxy-1-oxo-1,2-dihydroisoquinoline-7-carboxamide] | 83
21 | O=C(NO)c1ccc2c(=O)[nH]c(COc3ccc4c(c3)OCO4)nc2c1 [Compound I-66, 2-[(1,3-benzodioxol-5-yloxy)methyl]-N-hydroxy-4-oxo-3,4-dihydroquinazoline-7-carboxamide] | 89.5

Now from value to compound:

Row | inhibition at 0.412 µM [%] | SMILES
22 | 92.5 | O=C(NO)c1ccc2ccn(CCCOCc3ccccc3)c(=O)c2c1 [Compound I-163, 2-[3-(benzyloxy)propyl]-N-hydroxy-1-oxo-1,2-dihydroisoquinoline-7-carboxamide]
23 | 93.9 | O=C(NO)c1ccc2ccn(CCOc3cccc(OCc4ccccc4)c3)c(=O)c2c1 [Compound I-258, 2-{2-[3-(benzyloxy)phenoxy]ethyl}-N-hydroxy-1-oxo-1,2-dihydroisoquinoline-7-carboxamide]
24 | 94.4 | COc1ccc(N(CCCn2ccc3ccc(C(=O)NO)cc3c2=O)C(=O)OC(C)(C)C)cc1 [Compound I-188, tert-butyl {3-[7-[(hydroxyamino)carbonyl]-1-oxoisoquinolin-2(1H)-yl]propyl}(4-methoxyphenyl)carbamate]
25 | 72.8 | O=C(NO)c1ccc2c(=O)[nH]c(COc3ccccc3C(F)(F)F)nc2c1 [Compound I-168, N-hydroxy-4-oxo-2-{[2-(trifluoromethyl)phenoxy]methyl}-3,4-dihydroquinazoline-7-carboxamide]
26 | 95.5 | CS(=O)(=O)c1ccc(Cn2ccc3ccc(C(=O)NO)cc3c2=O)cc1 [Compound I-186, N-hydroxy-2-[4-(methylsulfonyl)benzyl]-1-oxo-1,2-dihydroisoquinoline-7-carboxamide]
27 | 85.6 | CCC(C)Cn1ccc2ccc(C(=O)NO)cc2c1=O (centres unmarked) [Compound I-255, N-hydroxy-2-(2-methylbutyl)-1-oxo-1,2-dihydroisoquinoline-7-carboxamide]
28 | 93.7 | O=C(NO)c1ccc2ccn(CCCOc3ccccc3Cl)c(=O)c2c1 [Compound I-227, 2-[3-(2-chlorophenoxy)propyl]-N-hydroxy-1-oxo-1,2-dihydroisoquinoline-7-carboxamide]
29 | 94.8 | CC(C)(C)c1ccc(Cn2ccc3ccc(C(=O)NO)cc3c2=O)cc1 [Compound I-267, 2-(4-tert-butylbenzyl)-N-hydroxy-1-oxo-1,2-dihydroisoquinoline-7-carboxamide]
